Laboratory results: PubChem BioAssay (NCI)
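Grown in 96-well plates, cells were treated for 48 hours with each compound at five concentrations. Insufficient inhibition: endpoint recorded as highest concentration tested. At the GI50, growth is halved. TGI: concentration producing complete growth inhibition.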

What was measured:
Assay in all cases: inhibition of tumour cell growth, NCI panel, 48 h
LOX IMVI melanoma = system: LOX IMVI melanoma
DU-145 prostate = system: DU-145 prostate
NCI-H226 lung = system: NCI-H226 lung
HCT-15 colon = system: HCT-15 colon
UACC-62 melanoma = system: UACC-62 melanoma
MDA-N = system: MDA-N
CAKI-1 renal = system: CAKI-1 renal
SW-620 colon = system: SW-620 colon
HL-60(TB) leukemia = system: HL-60(TB) leukemia
BT-549 breast = system: BT-549 breast
HOP-92 NSCLC = system: HOP-92 NSCLC

Compound: C=CCNC(=S)/N=C/C(C(=O)Nc1ccccc1C)=C(\C)O
- TGI (LOX IMVI melanoma): > 100 µM
- TGI (DU-145 prostate): > 100 µM
- TGI (NCI-H226 lung): > 100 µM
- TGI (HCT-15 colon): > 100 µM
- TGI (UACC-62 melanoma): > 100 µM
- TGI (MDA-N): > 100 µM
- TGI (CAKI-1 renal): > 100 µM
- TGI (SW-620 colon): > 100 µM
- TGI (HL-60(TB) leukemia): > 100 µM
- TGI (BT-549 breast): > 100 µM

Compound: CN1CCC2(CC1)C(=NC1CCCCC1)NC(=O)N2c1ccccc1
- TGI (DU-145 prostate): > 100 µM
- TGI (NCI-H226 lung): > 100 µM
- TGI (HOP-92 NSCLC): > 100 µM
- TGI (HCT-15 colon): > 100 µM
- TGI (UACC-62 melanoma): > 100 µM
- TGI (SW-620 colon): > 100 µM
- TGI (HL-60(TB) leukemia): > 100 µM

Compound: CC1(C)CC(=O)C2=C(C1)OC1(CC2c2ccc(Cl)cc2)CC(c2ccc(Cl)cc2)C2=C(CC(C)(C)CC2=O)O1 (stereo not given)
- TGI (LOX IMVI melanoma): 64.2 µM
- TGI (DU-145 prostate): 46.4 µM
- TGI (NCI-H226 lung): 42.1 µM
- TGI (HOP-92 NSCLC): 25.7 µM
- TGI (HCT-15 colon): > 100 µM
- TGI (UACC-62 melanoma): > 53.5 µM
- TGI (CAKI-1 renal): 52.3 µM
- TGI (SW-620 colon): 61.2 µM
- TGI (HL-60(TB) leukemia): 24.1 µM
- TGI (BT-549 breast): 50.6 µM

Compound: CCOC(=O)C(C(=O)COC(C)(C)C)[C@@H]1C=C[C@H](OC(C)=O)C1 (stereo not given in full)
- TGI (NCI-H226 lung): > 100 µM
- TGI (HCT-15 colon): > 100 µM
- TGI (UACC-62 melanoma): > 100 µM
- TGI (MDA-N): > 100 µM
- TGI (CAKI-1 renal): > 100 µM
- TGI (SW-620 colon): > 100 µM
- TGI (BT-549 breast): > 100 µM

Compound: CC(C)C(NC(=O)C(Cc1ccccc1)NC(=O)[C@H]1CCC[C@H]1NC(=O)C(Cc1ccc(OC(C)(C)C)cc1)NC(=O)OC(C)(C)C)C(N)=O (stereo not given in full)
- TGI (LOX IMVI melanoma): 30.3 µM
- TGI (DU-145 prostate): > 100 µM
- TGI (NCI-H226 lung): 37.8 µM
- TGI (HOP-92 NSCLC): 48.9 µM
- TGI (HCT-15 colon): > 100 µM
- TGI (UACC-62 melanoma): 40.5 µM
- TGI (MDA-N): 35 µM
- TGI (CAKI-1 renal): > 100 µM
- TGI (SW-620 colon): 51.3 µM
- TGI (HL-60(TB) leukemia): > 100 µM

Compound: COc1ccc(-n2cnc3c(NC(Cc4ccccc4)C(=O)O)ncnc32)cc1 (stereo not given)
- TGI (LOX IMVI melanoma): > 100 µM
- TGI (DU-145 prostate): > 100 µM
- TGI (NCI-H226 lung): > 100 µM
- TGI (HOP-92 NSCLC): > 100 µM
- TGI (HCT-15 colon): > 100 µM
- TGI (UACC-62 melanoma): > 100 µM
- TGI (MDA-N): > 100 µM
- TGI (CAKI-1 renal): > 100 µM
- TGI (SW-620 colon): > 100 µM
- TGI (BT-549 breast): > 100 µM

Compound: Cc1cc2ccc(N)nc2[nH]c1=O
- TGI (DU-145 prostate): > 100 µM
- TGI (NCI-H226 lung): > 100 µM
- TGI (HOP-92 NSCLC): > 100 µM
- TGI (HCT-15 colon): > 100 µM
- TGI (UACC-62 melanoma): > 100 µM
- TGI (MDA-N): > 100 µM
- TGI (CAKI-1 renal): > 100 µM
- TGI (SW-620 colon): > 100 µM
- TGI (HL-60(TB) leukemia): > 100 µM
- TGI (BT-549 breast): > 100 µM

Compound: COc1ccc(-c2n/c(=C\c3c(O)[nH]c4ccccc34)cc3c2=Nc2ccccc2-3)cc1
- GI50 (LOX IMVI melanoma): 1.55 µM
- TGI (LOX IMVI melanoma): 2.88 µM
- GI50 (DU-145 prostate): 1.61 µM
- TGI (DU-145 prostate): 3.31 µM
- GI50 (NCI-H226 lung): 15.1 µM
- TGI (NCI-H226 lung): 36.2 µM
- GI50 (HCT-15 colon): 1.64 µM
- TGI (HCT-15 colon): 4.13 µM
- GI50 (UACC-62 melanoma): 1.31 µM
- TGI (UACC-62 melanoma): 2.58 µM
- GI50 (CAKI-1 renal): 14.5 µM
- TGI (CAKI-1 renal): 36.7 µM
- GI50 (SW-620 colon): 1.11 µM
- TGI (SW-620 colon): 2.31 µM
- GI50 (HL-60(TB) leukemia): 1.9 µM
- TGI (HL-60(TB) leukemia): 4.08 µM
- GI50 (BT-549 breast): 1.45 µM
- TGI (BT-549 breast): 2.96 µM

Compound: COc1ccc2c(c1)CCC/C2=N\NS(=O)(=O)c1c(C)cc(C)cc1C
- TGI (LOX IMVI melanoma): 43 µM
- TGI (DU-145 prostate): 68.1 µM
- TGI (NCI-H226 lung): 59.8 µM
- TGI (HOP-92 NSCLC): 54.7 µM
- TGI (HCT-15 colon): 95.3 µM
- TGI (UACC-62 melanoma): 42.6 µM
- TGI (MDA-N): > 100 µM
- TGI (CAKI-1 renal): > 100 µM
- TGI (SW-620 colon): 90.8 µM
- TGI (BT-549 breast): 77.2 µM

Compound: O=C(Cc1ccccc1)NN1C(=O)/C(=C\c2ccccc2O)SC1=Nc1ccccc1
- TGI (DU-145 prostate): > 100 µM
- TGI (NCI-H226 lung): > 100 µM
- TGI (HOP-92 NSCLC): > 100 µM
- TGI (HCT-15 colon): > 100 µM
- TGI (UACC-62 melanoma): > 100 µM
- TGI (MDA-N): > 100 µM
- TGI (SW-620 colon): > 100 µM
- TGI (BT-549 breast): > 100 µM

Compound: CN(C)CN(C)c1nc(N(C)C)nc(N(C)CN(C)C)n1
- TGI (LOX IMVI melanoma): 55.1 µM
- TGI (NCI-H226 lung): > 100 µM
- TGI (HOP-92 NSCLC): > 100 µM
- TGI (HCT-15 colon): 68.2 µM
- TGI (UACC-62 melanoma): 40.9 µM
- TGI (CAKI-1 renal): > 100 µM
- TGI (SW-620 colon): 57.3 µM
- TGI (HL-60(TB) leukemia): 36.4 µM

Compound: CC(=O)c1sc2[n+](c1C)C(=O)/C(=C\c1ccccc1Cl)S2
- TGI (LOX IMVI melanoma): 35.8 µM
- TGI (DU-145 prostate): 33.6 µM
- TGI (NCI-H226 lung): 30.9 µM
- TGI (HOP-92 NSCLC): > 100 µM
- TGI (HCT-15 colon): 27.1 µM
- TGI (UACC-62 melanoma): 25.8 µM
- TGI (MDA-N): 44 µM
- TGI (CAKI-1 renal): 41 µM
- TGI (SW-620 colon): 31.1 µM
- TGI (HL-60(TB) leukemia): 39 µM

Compound: Cc1ccccc1NC(=O)Cc1csc(N=Nc2c(O)[nH]c3ccccc23)n1
- TGI (LOX IMVI melanoma): > 100 µM
- TGI (DU-145 prostate): > 100 µM
- TGI (NCI-H226 lung): > 100 µM
- TGI (HOP-92 NSCLC): > 100 µM
- TGI (HCT-15 colon): > 100 µM
- TGI (UACC-62 melanoma): > 100 µM
- TGI (MDA-N): > 100 µM
- TGI (CAKI-1 renal): 37.6 µM
- TGI (SW-620 colon): > 1 µM
- TGI (HL-60(TB) leukemia): 62.1 µM

Compound: O=C1CC(c2ccccc2)S(=O)c2ccccc2N1 (stereo not given)
- TGI (LOX IMVI melanoma): > 100 µM
- TGI (DU-145 prostate): > 100 µM
- TGI (NCI-H226 lung): > 100 µM
- TGI (HCT-15 colon): > 100 µM
- TGI (UACC-62 melanoma): > 100 µM
- TGI (CAKI-1 renal): > 100 µM
- TGI (HL-60(TB) leukemia): > 100 µM
- TGI (BT-549 breast): > 100 µM

Compound: CC(C)(C)C1=C(Br)C(OC(=O)C(F)(F)F)(C(C)(C)C)OP1(=O)c1ccccc1 (stereo not given)
- TGI (LOX IMVI melanoma): > 100 µM
- TGI (DU-145 prostate): > 100 µM
- TGI (NCI-H226 lung): > 100 µM
- TGI (HOP-92 NSCLC): 92.5 µM
- TGI (HCT-15 colon): > 100 µM
- TGI (UACC-62 melanoma): 95.4 µM
- TGI (MDA-N): > 100 µM
- TGI (CAKI-1 renal): 4.97 µM
- TGI (HL-60(TB) leukemia): > 100 µM

Compound: CN(C)CCCNC(=O)c1cn2c(ccc3sc4ccccc4c(=O)c32)n1
- TGI (DU-145 prostate): 25 µM
- TGI (NCI-H226 lung): 36.1 µM
- TGI (HOP-92 NSCLC): 24.7 µM
- TGI (HCT-15 colon): 10.7 µM
- TGI (UACC-62 melanoma): 35.9 µM
- TGI (MDA-N): 9.88 µM
- TGI (CAKI-1 renal): 14.8 µM
- TGI (SW-620 colon): 3.15 µM
- TGI (HL-60(TB) leukemia): 22.2 µM
- TGI (BT-549 breast): 37.8 µM

Compound: CCn1c2ccccc2c2cc(Nc3cc(C)[nH]c(=O)n3)ccc21
- TGI (DU-145 prostate): > 100 µM
- TGI (HOP-92 NSCLC): > 100 µM
- TGI (HCT-15 colon): > 100 µM
- TGI (UACC-62 melanoma): > 100 µM
- TGI (MDA-N): > 100 µM
- TGI (CAKI-1 renal): > 100 µM
- TGI (SW-620 colon): > 100 µM

Compound: C(#Cc1ccccc1)SC1=C(c2ccccc2)S/C(=C(\SC#Cc2ccccc2)c2ccccc2)S1
- TGI (LOX IMVI melanoma): > 100 µM
- TGI (DU-145 prostate): > 100 µM
- TGI (NCI-H226 lung): > 100 µM
- TGI (HOP-92 NSCLC): > 100 µM
- TGI (HCT-15 colon): > 100 µM
- TGI (UACC-62 melanoma): > 100 µM
- TGI (MDA-N): > 100 µM
- TGI (CAKI-1 renal): > 100 µM
- TGI (SW-620 colon): > 100 µM
- TGI (BT-549 breast): > 100 µM

Compound: COc1cc(C(C#N)NNc2nc(C)cc(=O)[nH]2)cc(OC)c1OC (stereo not given)
- TGI (LOX IMVI melanoma): > 100 µM
- TGI (NCI-H226 lung): > 100 µM
- TGI (HOP-92 NSCLC): > 100 µM
- TGI (HCT-15 colon): > 100 µM
- TGI (UACC-62 melanoma): > 100 µM
- TGI (CAKI-1 renal): > 100 µM
- TGI (SW-620 colon): > 100 µM
- TGI (HL-60(TB) leukemia): > 100 µM

Compound: CC(=O)Nc1ccc(-c2nnc(SCC(=O)Nc3ccc(Cl)cc3)o2)cc1
- TGI (LOX IMVI melanoma): 22.4 µM
- TGI (NCI-H226 lung): 37 µM
- TGI (HCT-15 colon): 40 µM
- TGI (UACC-62 melanoma): 20.2 µM
- TGI (CAKI-1 renal): 33.7 µM
- TGI (SW-620 colon): 29.8 µM
- TGI (HL-60(TB) leukemia): 40.1 µM

Compound: Cc1ccc(/C=C2/N=C(N/N=C\c3ccccc3)NC2=O)cc1
- TGI (LOX IMVI melanoma): > 100 µM
- TGI (DU-145 prostate): > 100 µM
- TGI (NCI-H226 lung): > 100 µM
- TGI (HCT-15 colon): > 100 µM
- TGI (MDA-N): 88.2 µM
- TGI (CAKI-1 renal): > 100 µM
- TGI (SW-620 colon): > 100 µM
- TGI (BT-549 breast): > 100 µM
